In one assay the target is T1, HER-2 (Homo sapiens, UniProt P04626).
T1 construct: His6 with thrombin site (N); purchased Proqinase (Freiburg, Germany)
The experiment in a line: HER-2 Kinase Assay. The class given is biochemical. The following applies: for inhibition at 1 µM: test concentration of 1 μM; for IC50: value in parentheses. The gist of the method: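 GST/HIS6-tagged HER-2 aa 679–1255 kinase with biotinylated polyGluTyr (1.5 ng/μL), 1 μM ATP plus γ-33P-ATP, Mg2+/Mn2+, DTT, Hepes pH 7.5; 1 h at 30 °C. Substrate phosphorylation captured on streptavidin scintillation plates after EDTA/PBS washes; values are % inhibition at 1 μM or IC50.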

The target in another assay is T2, Lyn kinase (human) (Homo sapiens, UniProt P07948).
T2 construct: purchased Upstate Biotechnology, Lake Placid, N.Y
The experiment in a line: Lyn Kinase Assay. Format: biochemical. As to conditions: for inhibition at 2 µM / % Inhibition (Lyn): test concentration of 2 μM; for % Inhibition (Lyn): 2 µM. The gist of the method: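 Radiometric filter-binding assay with recombinant human Lyn, poly(Glu,Tyr) substrate (0.1 mg/mL final), 5 μM ATP plus γ-33P-ATP in MOPS pH 7.5/Mg acetate buffer; 40 min at 30 °C, stopped with phosphoric acid, counted by scintillation. Reported as percent inhibition at 2 μM, with IC50 (μM) where determined.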

“And” between values parts separate entries of the source, which are not always exact repeats. Equal entries are not always repeated.

T2 sequence (P07948 whole entry): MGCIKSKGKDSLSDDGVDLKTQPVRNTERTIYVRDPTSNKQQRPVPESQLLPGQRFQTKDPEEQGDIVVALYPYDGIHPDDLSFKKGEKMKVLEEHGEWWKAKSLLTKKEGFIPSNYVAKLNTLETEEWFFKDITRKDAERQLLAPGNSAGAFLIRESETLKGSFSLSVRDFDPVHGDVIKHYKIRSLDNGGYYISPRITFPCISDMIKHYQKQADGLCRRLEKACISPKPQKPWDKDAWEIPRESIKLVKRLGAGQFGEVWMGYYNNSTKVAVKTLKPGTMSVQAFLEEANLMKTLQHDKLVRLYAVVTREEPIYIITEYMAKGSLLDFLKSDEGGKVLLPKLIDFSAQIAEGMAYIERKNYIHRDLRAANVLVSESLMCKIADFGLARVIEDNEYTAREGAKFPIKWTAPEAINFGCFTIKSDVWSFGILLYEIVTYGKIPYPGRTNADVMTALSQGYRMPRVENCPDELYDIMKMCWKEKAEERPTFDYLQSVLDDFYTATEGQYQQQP
T1 sequence (P04626 679-1255): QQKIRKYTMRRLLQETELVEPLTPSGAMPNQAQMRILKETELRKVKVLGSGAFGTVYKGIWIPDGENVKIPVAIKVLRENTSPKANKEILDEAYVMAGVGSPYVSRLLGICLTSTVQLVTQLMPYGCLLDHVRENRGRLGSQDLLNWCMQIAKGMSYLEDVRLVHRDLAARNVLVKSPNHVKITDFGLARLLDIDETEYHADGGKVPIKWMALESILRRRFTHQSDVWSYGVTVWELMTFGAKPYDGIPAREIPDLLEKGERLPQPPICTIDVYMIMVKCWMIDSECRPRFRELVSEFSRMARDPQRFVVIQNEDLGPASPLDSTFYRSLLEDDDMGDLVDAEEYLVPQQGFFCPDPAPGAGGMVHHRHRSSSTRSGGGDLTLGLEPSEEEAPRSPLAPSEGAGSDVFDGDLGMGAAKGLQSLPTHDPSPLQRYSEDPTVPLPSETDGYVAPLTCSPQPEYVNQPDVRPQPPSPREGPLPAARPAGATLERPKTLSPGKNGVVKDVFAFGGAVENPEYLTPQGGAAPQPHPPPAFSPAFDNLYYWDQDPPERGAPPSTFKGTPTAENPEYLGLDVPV

As for `O=C(Nc1ccc(CN2CCOCC2)cc1)c1sc2ncnc3c2c1NC(=O)N3c1ccc(Oc2ccccc2)cc1` [Cpd 97, 4-oxo-5-(4-phenoxy-phenyl)-4,5-dihydro-3H-1-thia-3,5,6,8-tetraaza-acenaphthylene-2-carboxylic acid (4-morpholin-4-ylmethyl-phenyl)-amide], at HER-2, the inhibition (usually the relative decrease from the control value, in per cent) at 1 µM turned out to be 97% and the IC50 (usually the concentration needed to halve the response being measured) was 27 nM. At Lyn kinase (human), the inhibition at 2 µM stood at 36.5% and the “% Inhibition (Lyn)” value came out at 26.6%.

Take `O=C(Nc1ccc(CN2CCOCC2)cc1)c1sc2ncnc3c2c1NC(=O)N3c1ccc(Sc2ccccc2)cc1` [Cpd 178, 4-oxo-5-(4-phenylsulfanyl-phenyl)-4,5-dihydro-3H-1-thia-3,5,6,8-tetraaza-acenaphthylene-2-carboxylic acid (4-morpholin-4-ylmethyl-phenyl)-amide]: the IC50 at HER-2 is 56 nM.

Take `O=C(Nc1ccc(CN2CCCCC2)cc1)c1sc2ncnc3c2c1NC(=O)N3c1ccc(OCc2ccccn2)c(Cl)c1` [Cpd 89, 5-[3-chloro-4-(pyridin-2-ylmethoxy)-phenyl]-4-oxo-4,5-dihydro-3H-1-thia-3,5,6,8-tetraaza-acenaphthylene-2-carboxylic acid (4-piperidin-1-ylmethyl-phenyl)-amide]: on HER-2, the inhibition at 1 µM was 93% and the IC50 amounted to 69 nM. Further, the “% Inhibition (Lyn)” value at Lyn kinase (human) was 4% and 0.5%.

`COc1cc(N2C(=O)Nc3c(C(=O)Nc4ccc(CN5CCCC5)cc4)sc4ncnc2c34)c(Cl)cc1Cl` [Cpd 43, 5-(2,4-dichloro-5-methoxy-phenyl)-4-oxo-4,5-dihydro-3H-1-thia-3,5,6,8-tetraaza-acenaphthylene-2-carboxylic acid (4-pyrrolidin-1-ylmethyl-phenyl)-amide]: the inhibition at 1 µM at HER-2 was found to be 21%. In addition, the inhibition at 2 µM against Lyn kinase (human) turned out to be 71%.

In the case of `COc1ccc(Cl)c(N2C(=O)Nc3c(C(=O)Nc4ccc(CN5CCOCC5)cc4)sc4ncnc2c34)c1` [Cpd 51, 5-(2-chloro-5-methoxy-phenyl)-4-oxo-4,5-dihydro-3H-1-thia-3,5,6,8-tetraaza-acenaphthylene-2-carboxylic acid (4-morpholin-4-ylmethyl-phenyl)-amide], at HER-2, the inhibition at 1 µM came out at 28%. The inhibition at 2 µM against Lyn kinase (human) amounted to 70%.

Turning to `COc1ccc(Cl)c(N2C(=O)Nc3c(C(=O)Nc4ccc(OCCN5CCOCC5)c(OC)c4)sc4ncnc2c34)c1` [Cpd 50, 5-(2-chloro-5-methoxy-phenyl)-4-oxo-4,5-dihydro-3H-1-thia-3,5,6,8-tetraaza-acenaphthylene-2-carboxylic acid [3-methoxy-4-(2-morpholin-4-yl-ethoxy)-phenyl]-amide], at HER-2, the inhibition at 1 µM was -5%. Also, the inhibition at 2 µM against Lyn kinase (human) was determined as 60%.

For `O=C(Nc1ccc(CN2CCOCC2)cc1)c1sc2ncnc3c2c1NC(=O)N3c1c(Cl)ccc2c1OCO2` [Cpd 62, 5-(5-chloro-benzo[1,3]dioxol-4-yl)-4-oxo-4,5-dihydro-3H-1-thia-3,5,6,8-tetraaza-acenaphthylene-2-carboxylic acid (4-morpholin-4-ylmethyl-phenyl)-amide], the IC50 at HER-2 turned out to be 528 nM. At Lyn kinase (human), the inhibition at 2 µM was 92%.

Consider `COc1ccc(Cl)c(N2C(=O)Nc3c(C(=O)Nc4ccc(OC)c(OC)c4)sc4ncnc2c34)c1` [Cpd 49, 5-(2-chloro-5-methoxy-phenyl)-4-oxo-4,5-dihydro-3H-1-thia-3,5,6,8-tetraaza-acenaphthylene-2-carboxylic acid (3,4-dimethoxy-phenyl)-amide], for which, on HER-2, the inhibition at 1 µM was -5%. Besides, at Lyn kinase (human), the inhibition at 2 µM was determined as 50%.

`CN1CCN(Cc2ccc(NC(=O)c3sc4ncnc5c4c3NC(=O)N5c3ccc(OCc4ccccn4)c(Cl)c3)cc2)CC1` [Cpd 90, 5-[3-chloro-4-(pyridin-2-ylmethoxy)-phenyl]-4-oxo-4,5-dihydro-3H-1-thia-3,5,6,8-tetraaza-acenaphthylene-2-carboxylic acid [4-(4-methyl-piperazin-1-ylmethyl)-phenyl]-amide]: on HER-2, the inhibition at 1 µM is 82% and the IC50 came to 503 nM. Moreover, the inhibition at 2 µM against Lyn kinase (human) was -8.1%.

Take `COc1cc(NC(=O)c2sc3ncnc4c3c2NC(=O)N4c2ccc(Oc3ccccc3)cc2)ccc1OCCN1CCCCC1` [Cpd 100, 4-oxo-5-(4-phenoxy-phenyl)-4,5-dihydro-3H-1-thia-3,5,6,8-tetraaza-acenaphthylene-2-carboxylic acid [3-methoxy-4-(2-piperidin-1-yl-ethoxy)-phenyl]-amide]: on HER-2, the inhibition at 1 µM came to 95% and the IC50 was 111 nM. Moreover, at Lyn kinase (human), the inhibition at 2 µM worked out at 40% and the “% Inhibition (Lyn)” value was determined as 50%.

Regarding `O=C(Nc1ccc(CN2CCOCC2)cc1)c1sc2ncnc3c2c1NC(=O)N3c1c(Cl)cccc1Cl` [Cpd 104, 5-(2,6-dichloro-phenyl)-4-oxo-4,5-dihydro-3H-1-thia-3,5,6,8-tetraaza-acenaphthylene-2-carboxylic acid (4-morpholin-4-ylmethyl-phenyl)-amide], the IC50 on HER-2 stood at 7070 nM. Further, at Lyn kinase (human), the inhibition at 2 µM was found to be 70% and the “% Inhibition (Lyn)” value is listed as 69%.

Consider `COC(=O)c1sc2ncnc3c2c1NC(=O)N3c1c(Cl)ccc2c1OCO2` [Cpd 54, 5-(5-chloro-benzo[1,3]dioxol-4-yl)-4-oxo-4,5-dihydro-3H-1-thia-3,5,6,8-tetraaza-acenaphthylene-2-carboxylic acid methyl ester], for which the inhibition at 1 µM against HER-2 was determined as 3%. Besides, the inhibition at 2 µM against Lyn kinase (human) is 52%.

Regarding `O=C(Nc1ccc(CN2CCOCC2)cc1)c1sc2ncnc3c2c1NC(=O)N3c1ccc(Oc2ccccc2)c(F)c1` [Cpd 113, 5-(3-fluoro-4-phenoxy-phenyl)-4-oxo-4,5-dihydro-3H-1-thia-3,5,6,8-tetraaza-acenaphthylene-2-carboxylic acid (4-morpholin-4-ylmethyl-phenyl)-amide], at HER-2, the inhibition at 1 µM was found to be 83% and the IC50 is 89 nM. Further, on Lyn kinase (human), the inhibition at 2 µM stood at 60% and the “% Inhibition (Lyn)” value came out at 55%.

As for `COc1cc(N2C(=O)Nc3c(C(=O)Nc4ccc(CN5CCN(C)CC5)cc4)sc4ncnc2c34)c(Cl)cc1Cl` [Cpd 60], the inhibition at 1 µM on HER-2 was found to be 22%. The inhibition at 2 µM against Lyn kinase (human) worked out at 50%.

As for `O=C(Nc1ccc(CN2CCOCC2)cc1)c1sc2ncnc3c2c1NC(=O)N3c1ccc(N2CCOCC2)cc1` [Cpd 123, 5-(4-morpholin-4-yl-phenyl)-4-oxo-4,5-dihydro-3H-1-thia-3,5,6,8-tetraaza-acenaphthylene-2-carboxylic acid (4-morpholin-4-ylmethyl-phenyl)-amide], the concentration for half-maximal inhibition (IC50) is greater than 100000 nM at HER-2 and 1440 nM on Lyn kinase (human) (value in parentheses). Besides, the inhibition at 2 µM against Lyn kinase (human) stood at 55%.

For `O=C(Nc1ccc(NCCCN2CCOCC2)nc1)c1sc2ncnc3c2c1NC(=O)N3c1cccc(Br)c1` [Cpd 64, 5-(3-bromo-phenyl)-4-oxo-4,5-dihydro-3H-1-thia-3,5,6,8-tetraaza-acenaphthylene-2-carboxylic acid [6-(3-morpholin-4-yl-propylamino)-pyridin-3-yl]-amide], on HER-2, the inhibition at 1 µM turned out to be 57% and the IC50 worked out at 447 nM. The inhibition at 2 µM on Lyn kinase (human) turned out to be 26%.

Turning to `O=C(Nc1ccc(CN2CCCCC2)cc1)c1sc2ncnc3c2c1NC(=O)N3c1ccc(Oc2ccccc2)cc1` [Cpd 96, 4-oxo-5-(4-phenoxy-phenyl)-4,5-dihydro-3H-1-thia-3,5,6,8-tetraaza-acenaphthylene-2-carboxylic acid (4-piperidin-1-ylmethyl-phenyl)-amide], on HER-2, the inhibition at 1 µM was determined as 98% and the IC50 turned out to be 41 nM. Also, on Lyn kinase (human), the inhibition at 2 µM is 27% and the “% Inhibition (Lyn)” value is 16.8%.

Take `CN1CCN(Cc2ccc(NC(=O)c3sc4ncnc5c4c3NC(=O)N5c3ccc(Oc4ccccc4)cc3)cc2)CC1` [Cpd 98, 4-oxo-5-(4-phenoxy-phenyl)-4,5-dihydro-3H-1-thia-3,5,6,8-tetraaza-acenaphthylene-2-carboxylic acid [4-(4-methyl-piperazin-1-ylmethyl)-phenyl]-amide]: at HER-2, the inhibition at 1 µM was found to be 95% and the IC50 came out at 88 nM. On Lyn kinase (human), the inhibition at 2 µM is 30.7% and the “% Inhibition (Lyn)” value is 50.0%.

`O=C(Nc1ccc(CN2CCCCC2)cc1)c1sc2ncnc3c2c1NC(=O)N3c1ccc(Sc2ccccc2)cc1` [Cpd 169, 4-oxo-5-(4-phenylsulfanyl-phenyl)-4,5-dihydro-3H-1-thia-3,5,6,8-tetraaza-acenaphthylene-2-carboxylic acid (4-piperidin-1-ylmethyl-phenyl)-amide]: the IC50 on HER-2 worked out at 26 nM.

The values are drawn from patent US7579356B2, “Thia-tetraazaacenaphthylene kinase inhibitors” (Janssen Pharmaceutica NV, priority 2005, dated 2009).
